Read-outs that look alike come from different tables or passages of the source. Values belong to the molecule of their own block, whether it stands above or below them.
Biological target: T1, PI3Kδ (p110δ/p85α) (Homo sapiens, UniProt O00329)
T1 construct: purchased Millipore (Bedford, Mass.)
Assay: PI3Kδ scintillation proximity assay
Type: biochemical
Excerpt: Materials: [γ-^33P]ATP (10 mCi/mL) was purchased from Perkin-Elmer (Waltham, Mass.). Lipid kinase substrate, D-myo-Phosphatidylinositol 4,5-bisphosphate (PtdIns(4,5)P2)D (+)-sn-1,2-di-O-octanoylglyceryl, 3-O-phospho linked (PIP2), CAS 204858-53-7, was purchased from Echelon Biosciences (Salt Lake City, Utah). PI3Kδ (p110δ/p85α) was purchased from Millipore (Bedford, Mass.). ATP, MgCl2, DTT, EDTA, MOPS and CHAPS were purchased from Sigma-Aldrich (St. Louis, Mo.). Wheat Germ Agglutinin (WGA) YSi SPA Scintillation Beads was purchased from GE healthcare life sciences (Piscataway, N.J.).
Assay: The kinase reaction was conducted in polystyrene 384-well matrix white plate from Thermo Fisher Scientific in a final volume of 25 μL. Inhibitors were first diluted serially in DMSO and added to the plate wells before the addition of other reaction components. The final concentration of DMSO in the assay was 0.5%. The PI3K assays were carried out at room temperature in 20 mM MOPS, pH 6.7, 10 mM MgCl2, 5 mM DTT and CHAPS 0.03%. Reactions were initiated by the addition of ATP, the final reaction mixture consisted of 20 μM PIP2, 20 μM ATP, 0.2 μCi [γ-^33P] ATP, 4 nM PI3Kδ. Reactions were incubated for 210 minutes and terminated by the addition of 40 μL SPA beads suspended in quench buffer: 150 mM potassium phosphate pH 8.0, 20% glycerol. 25 mM EDTA, 400 μM ATP. The final concentration of SPA beads is 1.0 mg/mL. After the plate sealing, plates were shaken overnight at room temperature and centrifuged at 1800 rpm for 10 minutes, the radioactivity of the product was determined by scintillation counting on Topcount (Perkin-Elmer). IC50 determination was performed by fitting the curve of percent control activity versus the log of the inhibitor concentration using the GraphPad Prism® 3.0 software.

T1 sequence (O00329 whole entry): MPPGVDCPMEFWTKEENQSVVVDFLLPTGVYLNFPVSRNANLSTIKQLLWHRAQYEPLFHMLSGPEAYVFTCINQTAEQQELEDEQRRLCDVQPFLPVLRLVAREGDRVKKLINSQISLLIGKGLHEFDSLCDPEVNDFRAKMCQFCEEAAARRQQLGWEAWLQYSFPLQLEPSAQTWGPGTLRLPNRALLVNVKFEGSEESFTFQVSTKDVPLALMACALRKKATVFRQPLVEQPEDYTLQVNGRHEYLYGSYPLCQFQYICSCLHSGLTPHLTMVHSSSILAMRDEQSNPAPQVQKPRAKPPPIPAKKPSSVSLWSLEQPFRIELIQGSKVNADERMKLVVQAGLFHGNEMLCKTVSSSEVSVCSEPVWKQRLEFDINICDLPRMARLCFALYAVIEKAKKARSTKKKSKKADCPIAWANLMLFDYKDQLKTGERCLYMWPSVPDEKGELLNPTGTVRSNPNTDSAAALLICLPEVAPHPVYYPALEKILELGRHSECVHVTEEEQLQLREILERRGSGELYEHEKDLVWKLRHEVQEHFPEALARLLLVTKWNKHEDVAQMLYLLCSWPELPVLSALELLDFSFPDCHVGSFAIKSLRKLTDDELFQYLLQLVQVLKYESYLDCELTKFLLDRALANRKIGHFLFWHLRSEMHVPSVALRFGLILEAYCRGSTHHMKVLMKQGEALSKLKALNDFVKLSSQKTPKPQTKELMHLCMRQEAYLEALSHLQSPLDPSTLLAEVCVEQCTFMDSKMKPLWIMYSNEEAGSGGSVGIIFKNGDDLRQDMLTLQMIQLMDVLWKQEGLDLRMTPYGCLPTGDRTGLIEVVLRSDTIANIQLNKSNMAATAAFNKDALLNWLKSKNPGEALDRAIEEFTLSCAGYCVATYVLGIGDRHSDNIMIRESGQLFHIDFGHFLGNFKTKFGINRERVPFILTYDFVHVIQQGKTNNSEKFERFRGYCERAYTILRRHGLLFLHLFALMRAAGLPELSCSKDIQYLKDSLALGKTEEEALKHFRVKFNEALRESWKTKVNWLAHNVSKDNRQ
T1 sequence (P27986 whole entry partner): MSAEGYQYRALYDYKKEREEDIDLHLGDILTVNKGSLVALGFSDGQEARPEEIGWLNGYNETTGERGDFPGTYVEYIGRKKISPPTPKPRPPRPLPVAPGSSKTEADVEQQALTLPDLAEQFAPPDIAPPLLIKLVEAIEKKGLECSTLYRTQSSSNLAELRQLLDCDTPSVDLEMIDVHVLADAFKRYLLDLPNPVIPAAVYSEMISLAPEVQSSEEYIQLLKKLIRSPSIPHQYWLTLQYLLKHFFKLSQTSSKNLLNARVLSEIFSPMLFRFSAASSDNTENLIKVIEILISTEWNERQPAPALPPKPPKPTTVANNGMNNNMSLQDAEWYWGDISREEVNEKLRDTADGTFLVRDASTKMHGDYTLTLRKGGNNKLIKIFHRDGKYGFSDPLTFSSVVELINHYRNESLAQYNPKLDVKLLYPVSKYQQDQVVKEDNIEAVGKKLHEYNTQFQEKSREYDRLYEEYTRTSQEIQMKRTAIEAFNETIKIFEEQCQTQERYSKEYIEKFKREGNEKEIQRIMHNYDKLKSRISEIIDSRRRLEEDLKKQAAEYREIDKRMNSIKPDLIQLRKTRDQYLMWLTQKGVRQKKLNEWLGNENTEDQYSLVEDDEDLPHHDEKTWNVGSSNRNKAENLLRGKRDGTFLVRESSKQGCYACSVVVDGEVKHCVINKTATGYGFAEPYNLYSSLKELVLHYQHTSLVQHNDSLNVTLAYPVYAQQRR

SMILES: CC(Nc1ncnc2[nH]cnc12)c1nc(C#N)c2ccccc2c1-c1cccc(F)c1 (centres unmarked) [Example 54, 4-(3-fluorophenyl)-3-[1-(9H-purin-6-ylamino)ethyl]isoquinoline-1-carbonitrile]
IC50: 50 to 100 nM

SMILES: CC(Nc1ncnc2[nH]cnc12)c1cc(F)c2cccnc2c1N1CCN(C2CCC2)CC1 (centres unmarked) [Example 55, N-{1-[8-(4-Cyclobutylpiperazin-1yl)-5-fluoroquinolin-7-yl]ethyl}-9H-purin-6-amine]
IC50: < 50 nM

SMILES: CC(Nc1ncnc2[nH]cnc12)c1cc(Cl)c2ccncc2c1-c1cccc(F)c1 (centres unmarked) [Example 56, N-{1-[5-Chloro-8-(3-fluorophenyl)isoquinolin-7-yl]ethyl}-9H-purin-6-amine]
IC50: < 50 nM

SMILES: CC(Nc1ncnc2[nH]cnc12)c1cc(Cl)c2cccnc2c1N1CCN(CCO)CC1 (centres unmarked) [Example 58, 2-(4-{5-Chloro-7-[1-(9H-purin-6-ylamino)ethyl]quinolin-8-yf}piperazin-1-yl)ethanol tris(trifluoroacetate)]
IC50: < 50 nM

SMILES: CC(Nc1ncnc2[nH]cnc12)c1cc(Cl)c2cccnc2c1N1CCN(C2CCCCC2)CC1 (centres unmarked) [Example 65, N-{1-[5-Chloro-8-(4-cyclohexylpiperazin-1-yl)quinolin-7-yl]ethyl}-9H-purin-6-amine tris(trifluoroacetate)]
IC50: 50 to 100 nM

SMILES: CC(Nc1ncnc2[nH]cnc12)c1cc(Cl)c2cccnc2c1N1CCC(N2CCCCC2)CC1 (centres unmarked) [Example 70, N-{1-[8-(1,4′-Bipiperidin-1′-yl)-5-chloroquinolin-7-yl]ethyl}-9H-purin-6-amine tris(trifluoroacetate)]
IC50: 50 to 100 nM

SMILES: CCC(=O)N[C@H]1CCN(c2c(C(C)Nc3ncnc4[nH]cnc34)cc(Cl)c3cccnc23)C1 (stereo partly drawn) [Example 77, N-((3S)-1-{5-Chloro-7-[1-(9H-purin-6-ylamino)ethyl]quinolin-8-yl}pyrrolidin-3-yl)propanamide tris(trifluoroacetate)]
IC50 (separated isomer, 1st peak): > 1000 nM
IC50 (separated isomer, 2nd peak): < 50 nM

SMILES: CC(Nc1ncnc2[nH]cnc12)c1cc(Cl)c2cccnc2c1N1CCN(C(=O)C2CC2)CC1 (centres unmarked) [Example 84, N-(1-{5-Chloro-8-[4-(cyclopropylcarbonyl)piperazin-1-yl]quinolin-7-yl}ethyl)-9H-purin-6-amine bis(trifluoroacetate)]
IC50: < 50 nM

SMILES: COC(=O)N1CCN(c2c(C(C)Nc3ncnc4[nH]cnc34)cc(Cl)c3cccnc23)CC1 (centres unmarked) [Example 85, Methyl 4-{5-Chloro-7-[1-(9H-purin-6-ylamino)ethyl]quinolin-8-yl}piperazine-1-carboxylatebis(trifluoroacetate)]
IC50: < 50 nM

SMILES: CC(Nc1ncnc2[nH]cnc12)c1cc(Cl)c2cccnc2c1N1CCN(C(=O)C2CCC2)CC1 (centres unmarked) [Example 86, N-(1-{5-Chloro-8-[4-(cyclobutylcarbonyl)piperazin-1-yl]quinolin-7-yl}ethyl)-9H-purin-6-amine bis(trifluoroacetate)]
IC50: < 50 nM

SMILES: COCC(=O)N1CCN(c2c(C(C)Nc3ncnc4[nH]cnc34)cc(Cl)c3cccnc23)CC1 (centres unmarked) [Example 87, N-(1-{5-Chloro-8-[4-(methoxyacetyl)piperazin-1-yl]quinolin-7-yl}ethyl)-9H-purin-6-amine bis(trifluoroacetate)]
IC50: < 50 nM

SMILES: CC(Nc1ncnc2[nH]cnc12)c1cc(Cl)c2cccnc2c1N1CCN(C(=O)N(C)C)CC1 (centres unmarked) [Example 88, 4-{5-Chloro-7-[1-(9H-purin-6-ylamino)ethyl]quinolin-8-yl}-N,N-dimethylpiperazine-1-carboxamide bis(trifluoroacetate)]
IC50: < 50 nM

SMILES: CC(Nc1ncnc2[nH]cnc12)c1cc(Cl)c2cccnc2c1N1CCN(CC(=O)N(C)C)CC1 (centres unmarked) [Example 90, 2-(4-{5-Chloro-7-[1-(9H-purin-6-ylamino)ethyl]quinolin-8-yl}piperazin-1-yl)-N,N-dimethylacetamide tris(trifluoroacetate)]
IC50: < 50 nM

SMILES: CC(Nc1ncnc2[nH]cnc12)c1cc(Cl)c2cccnc2c1N1CCN(C(=O)c2ccc(F)cc2)CC1 (centres unmarked) [Example 91, N-(1-{5-Chloro-8-[4-(4-fluorobenzoyl)piperazin-1-yl]quinolin-7-yl}ethyl)-9H-purin-6-amine bis(trifluoroacetate)]
IC50: 100 to 250 nM

SMILES: CC(Nc1ncnc2[nH]cnc12)c1cc(Cl)c2cccnc2c1N1CCN(C(=O)c2cccc(F)c2)CC1 (centres unmarked) [Example 92, N-(1-{5-Chloro-8-[4-(3-fluorobenzoyl)piperazin-1-yl]quinolin-7-yl}ethyl)-9H-purin-6-amine bis(trifluoroacetate)]
IC50: 100 to 250 nM

Other lines, results leading:

IC50: 100 to 250 nM
SMILES: CC(Nc1ncnc2[nH]cnc12)c1cc(Cl)c2cccnc2c1N1CCC(C#N)CC1 (centres unmarked) [Example 59, 1-{5-Chloro-7-[1-(9H-purin-6-ylamino)ethyl]quinolin-8-yl]piperidine-4-carbonitrile bis(trifluoroacetate)]

IC50: 250 to 500 nM
SMILES: CC(Nc1ncnc2[nH]cnc12)c1cc(Cl)c2cccnc2c1N1CCCC(F)C1 (centres unmarked) [Example 61, N-{1-[5-Chloro-8-(3-fluoropiperidin-1-yl)quinolin-7-yl]ethyl}-9H-purin-6-amine bis(trifluoroacetate)]

IC50: 100 to 250 nM
SMILES: CC(Nc1ncnc2[nH]cnc12)c1cc(Cl)c2cccnc2c1N1CCC(F)CC1 (centres unmarked) [Example 62, N-{1-[5-Chloro-8-(4-fluoropiperidin-1-yl)quinolin-7-yl]ethyl}-9H-purin-6-amine bis(trifluoroacetate)]

IC50: 100 to 250 nM
SMILES: CC(Nc1ncnc2[nH]cnc12)c1cc(Cl)c2cccnc2c1N1CCC(CO)CC1 (centres unmarked) [Example 64, (1-{5-Chloro-7-[1-(9H-purin-6-ylamino)ethyl]quinolin-8-yl}piperidin-4-yl)methanol tris(trifluoroacetate)]

IC50: < 50 nM
SMILES: CC(Nc1ncnc2[nH]cnc12)c1cc(Cl)c2cccnc2c1N1CCN(C2CC2)CC1 (centres unmarked) [Example 66, N-{1-[5-Chloro-8-(4-cyclopropylpiperazin-1-yl)quinolin-7-yl]ethyl}-9H-purin-6-amine tris(trifluoroacetate)]

IC50: < 50 nM
SMILES: CC(Nc1ncnc2[nH]cnc12)c1cc(Cl)c2cccnc2c1N1CCN(C2CCC2)CC1 (centres unmarked) [Example 69, N-{1-[5-Chloro-8-(4-cyclobutylpiperazin-1-yl)quinolin-7-yl]ethyl}-9H-purin-6-amine tris(trifluoroacetate)]

IC50: 50 to 100 nM
SMILES: COC1CCN(c2c(C(C)Nc3ncnc4[nH]cnc34)cc(Cl)c3cccnc23)CC1 (centres unmarked) [Example 71, N-{1-[5-Chloro-8-(4-methoxypiperidin-1-yl)quinolin-7-yl]ethyl}-9H-purin-6-amine bis(trifluoroacetate)]

IC50: > 1000 nM
SMILES: CC(Nc1ncnc2[nH]cnc12)c1cc(Cl)c2cccnc2c1N1CCC(c2ccccc2)CC1 (centres unmarked) [Example 72, N-{1-[5-Chloro-8-(4-phenylpiperidin-1-yl)quinolin-7-yl]ethyl}-9H-purin-6-amine bis(trifluoroacetate)]

IC50: 100 to 250 nM
SMILES: CC(Nc1ncnc2[nH]cnc12)c1cc(Cl)c2cccnc2c1N1CCC(CCO)CC1 (centres unmarked) [Example 73, 2-(1-{5-Chloro-7-[1-(9H-purin-6-ylamino)ethyl]quinolin-8-yl}piperidin-4-yl)ethanol bis(trifluoroacetate)]

IC50: < 50 nM
SMILES: CC(Nc1ncnc2[nH]cnc12)c1cc(Cl)c2cccnc2c1N1CCN(Cc2ccncc2)CC1 (centres unmarked) [Example 74, N-(1-{5-Chloro-8-[4-(pyridin-4-ylmethyl)piperazin-1-yl]quinolin-7-yl}ethyl)-9H-purin-6-amine tris(trifluoroacetate)]

IC50 (separated isomer, 1st peak): 250 to 500 nM
IC50 (separated isomer, 2nd peak): 250 to 500 nM
SMILES: CC(Nc1ncnc2[nH]cnc12)c1cc(Cl)c2cccnc2c1N1CCC(c2ccccc2)C1 (centres unmarked) [Example 76, N-{1-[5-Chloro-8-(3-phenylpyrrolidin-1-yl)quinolin-7-yl]ethyl}-9H-purin-6-amine tris(trifluoroacetate)]

IC50: 100 to 250 nM
SMILES: CC(Nc1ncnc2[nH]cnc12)c1cc(Cl)c2cccnc2c1N1CCC(NS(C)(=O)=O)CC1 (centres unmarked) [Example 81, N-(1-{5-Chloro-7-[1-(9H-purin-6-ylamino)ethyl]quinolin-8-yl}piperidin-4-yl)methanesulfonamide bis(trifluoroacetate)]

IC50: < 50 nM
SMILES: CC(=O)NC1CCN(c2c(C(C)Nc3ncnc4[nH]cnc34)cc(Cl)c3cccnc23)CC1 (centres unmarked) [Example 82, N-(1-{5-Chloro-7-[1-(9H-purin-6-ylamino)ethyl]quinolin-8-yl}piperidin-4-yl)acetamide bis(trifluoroacetate)]

IC50: < 50 nM
SMILES: COC(=O)NC1CCN(c2c(C(C)Nc3ncnc4[nH]cnc34)cc(Cl)c3cccnc23)CC1 (centres unmarked) [Example 83, Methyl(1-{5-Chloro-7-[1-(9H-purin-6-ylamino)ethyl]quinolin-8-yl}piperidin-4-yl)carbamate bis(trifluoroacetate)]

IC50: 50 to 100 nM
SMILES: CC(Nc1ncnc2[nH]cnc12)c1cc(Cl)c2cccnc2c1N1CCN(C(=O)c2ccccc2)CC1 (centres unmarked) [Example 89, N-(1-[8-(4-Benzoylpiperazin-1-yl)-5-chloroquinolin-7-yl]ethyl}-9H-purin-6-amine bis(trifluoroacetate)]
